Experimental data: ChEMBL document CHEMBL3044953, “Effect of nitrogen insertion on the antitussive properties of menthol and camphor” (Med Chem Res, 2012)
The source made the active and inactive calls. No cut-off for these calls is given here.

Columns and labels:
Cavia porcellus [1] = species: Cavia porcellus; experiment: Antitussive activity against crtric acid-induced cough in Cavia porcellus (guinea pig) model assessed as reduction in cough response at 15 to 60 ug/ml for 5 min through aerosol prior to exposure of aerosolized citric acid for 10 min; type: functional, organism-based
Cavia porcellus [2] = species: Cavia porcellus; experiment: Antitussive activity against crtric acid-induced cough in Cavia porcellus (guinea pig) model assessed as increase in cough latency at 30 to 60 ug/ml for 5 min through aerosol prior to exposure of aerosolized citric acid for 10 min; type: functional, organism-based
Cavia porcellus [3] = species: Cavia porcellus; experiment: Antitussive activity against crtric acid-induced cough in Cavia porcellus (guinea pig) model assessed as reduction in cough response at 250 to 500 ug/ml for 5 min through aerosol prior to exposure of aerosolized citric acid for 10 min; type: functional, organism-based
Cavia porcellus [4] = species: Cavia porcellus; experiment: Antitussive activity against crtric acid-induced cough in Cavia porcellus (guinea pig) model assessed as increase in cough latency at 500 ug/ml for 5 min through aerosol prior to exposure of aerosolized citric acid for 10 min; type: functional, organism-based
Cavia porcellus [5] = species: Cavia porcellus; experiment: Antitussive activity against crtric acid-induced cough in Cavia porcellus (guinea pig) model assessed as cough response at 125 ug/ml for 5 min through aerosol prior to exposure of aerosolized citric acid for 10 min; type: functional, organism-based
Cavia porcellus [6] = species: Cavia porcellus; experiment: Antitussive activity against crtric acid-induced cough in Cavia porcellus (guinea pig) model assessed as cough latency at 125 to 250 ug/ml for 5 min through aerosol prior to exposure of aerosolized citric acid for 10 min; type: functional, organism-based
Cavia porcellus [7] = species: Cavia porcellus; experiment: Toxicity in Cavia porcellus (guinea pig) assessed as adverse behavior at 125 to 500 ug/ml through aerosol; type: organism-based; settings: in vivo, inhaled_or_intranasal
Cavia porcellus [8] = species: Cavia porcellus; experiment: Toxicity in Cavia porcellus (guinea pig) assessed as irritation at 125 to 500 ug/ml through aerosol; type: organism-based; settings: in vivo, inhaled_or_intranasal
Cavia porcellus [9] = species: Cavia porcellus; experiment: Antitussive activity against crtric acid-induced cough in Cavia porcellus (guinea pig) model assessed as reduction in cough response at 125 to 500 ug/ml for 5 min through aerosol prior to exposure of aerosolized citric acid for 10 min; type: functional, organism-based
Cavia porcellus [10] = species: Cavia porcellus; experiment: Antitussive activity against crtric acid-induced cough in Cavia porcellus (guinea pig) model assessed as increase in cough latency at 250 to 500 ug/ml for 5 min through aerosol prior to exposure of aerosolized citric acid for 10 min; type: functional, organism-based
Cavia porcellus [11] = species: Cavia porcellus; experiment: Antitussive activity against crtric acid-induced cough in Cavia porcellus (guinea pig) model assessed as cough latency at 125 ug/ml for 5 min through aerosol prior to exposure of aerosolized citric acid for 10 min; type: functional, organism-based
Cavia porcellus [12] = species: Cavia porcellus; experiment: Toxicity in Cavia porcellus (guinea pig) assessed as adverse behavior at 15 to 60 ug/ml through aerosol; type: organism-based; settings: in vivo, inhaled_or_intranasal
Cavia porcellus [13] = species: Cavia porcellus; experiment: Toxicity in Cavia porcellus (guinea pig) assessed as irritation at 15 to 60 ug/ml through aerosol; type: organism-based; settings: in vivo, inhaled_or_intranasal
Cavia porcellus [14] = species: Cavia porcellus; experiment: Antitussive activity against crtric acid-induced cough in Cavia porcellus (guinea pig) model assessed as increase in cough latency at 15 to 60 ug/ml for 5 min through aerosol prior to exposure of aerosolized citric acid for 10 min; type: functional, organism-based

CC1CCC(C(C)C)C(O)C1 (stereo not given)
inhibition (Cavia porcellus [1]): Active | Activity (Cavia porcellus [2]): Active

CC12CCC(CC1=O)C2(C)C (stereo not given)
inhibition (Cavia porcellus [3]): Active | Activity (Cavia porcellus [4]): Active | inhibition (Cavia porcellus [5]): inactive | Activity (Cavia porcellus [6]): inactive

CC1(C)C2CC[C@]1(C)C(=O)NC2 [Alpha-camphidone]
Activity (Cavia porcellus [7]): Non-toxic | Activity (Cavia porcellus [8]): Non-toxic | inhibition (Cavia porcellus [9]): Active | Activity (Cavia porcellus [10]): Active | Activity (Cavia porcellus [11]): inactive

CC(C)[C@@H]1CC[C@@H](C)CC(=O)N1 [Menthol lactam]
Activity (Cavia porcellus [12]): Non-toxic | Activity (Cavia porcellus [13]): Non-toxic | inhibition (Cavia porcellus [1]): Active | Activity (Cavia porcellus [14]): Active
